Source: patent publication US11931345B2, “Thiazolidinedione analogs for the treatment of NAFLD and metabolic diseases” (Cirius Therapeutics, Inc., priority 2018, dated 2024)

How the values were obtained:
[1] = test system: diet-induced obese (60% HF diet) WT (fl/fl) and LS-MPC2-/- mice; experiment: Intraperitoneal glucose tolerance test and plasma insulin in diet-induced obese WT and LS-MPC2-/- mice after a single dose; type: in vivo, mouse; settings: for glucose tolerance (GTT): 20 h after a single dose of 30 mg/kg; for plasma insulin: single dose 30 mg/kg
Protocol: (§1) 8 week old WT and LS-MPC2−/− mice were fed a diet of 60% fat (Research Diets D12492) for 20 weeks to induce obesity and insulin resistance. Intraperitoneal glucose tolerance tests (GTT) were performed after a 4 h fast by injection of 1 g/kg D-glucose in saline i.p. to assess glucose tolerance. 3 days after the initial GTT, mice were randomized to receive a single gavage of either vehicle (1% CMC, 0.01% Tween-80) or 30 mg/kg MSDC-0602K. Plasma insulin was measured by Singulex assay and plasma ALT levels were measured by commercially-available kits (Teco Diagnostics). qPCR was performed by isolation of total RNA with RNA-Bee and reverse transcription with a high-capacity cDNA synthesis kit (Invitrogen). qPCR was performed on an Applied Biosystems real-time thermocycler.

[2] = test system: diet-induced obese (60% HF diet) WT (fl/fl) and LS-MPC2-/- mice; experiment: Markers of liver injury (plasma ALT, qPCR gene expression) in obese WT and LS-MPC2-/- mice after a single dose; type: in vivo, mouse
Protocol: as §1

[3] = test system: uncoupling protein 1 (UCP1); experiment: UCP1 expression (Western blot) in brown adipose precursors in vitro, with T3; type: cell-based; settings: added to T3 0 to 30 nM; sensitivity and magnitude of response; FIG. 14
Text: FIG. 14. Is a graphic representation of the data of thyroid hormone with MSDC-0602 in vitro.
The addition of the thyroid agonist not only increases the maximum response. […] The response measured here is increased expression of the uncoupling protein 1 (UCP1) on Western blot—a measure of differentiation of brown adipose cells.

[4] = test system: ZDSD/Pco rats challenged with a high fat diet; experiment: ZDSD/Pco rats on high fat diet: circulating glucose, insulin, OGTT; type: in vivo, rat; settings: over 4 week treatment, compared to group 2 (control treatment on high fat diet); oral MSDC-0602 30 mg/kg, exenatide s.q. 1 μg
Protocol: (§2) Male ZDSD/Pco rats were maintained on standard chow 5008 (Purina) until treatment groups were switched to the high fat diet (Purina 5SCA). […] Control rats (given both vehicles) were maintained on the normal diet and the treatment groups were switched to the high fat diet as indicated. Glucose and insulin were measured weekly from tail vein samples. On day 36 an oral glucose tolerance test (OGTT); 2 g/kg) was conducted after a 16 hour fast. Glucose samples were taken at 0, 30, 60, 90, and 120 minutes; insulin was measured at 0 and 30 minutes and the change at 30 minutes is shown. Data are mean and SE; N=10. At sacrifice, the pancreas was fixed in formalin and shipped to MSU for histology and IHC. A range of anti-bodies were used to identify and quantify the presence of insulin, Ki67, collagen, CD3 lymphocytes, PDX-1 and Bcl2. An Image-Pro system was used with Image J to quantify the degree of positive staining. […] Five matched groups of ZDSD/Pco rats were selected at 14 weeks of age and then treated for 6 weeks. […] At sacrifice, the pancreas was removed, fixed, and stained for insulin, PDX1, and Ki67, as an index of proliferation.

pancreatic islets = experiment: Pancreas histology and IHC of ZDSD/Pco rats (insulin, Ki67, PDX-1, Bcl2); type: in vivo, rat; settings: pancreas at sacrifice; high fat diet; oral MSDC-0602 30 mg/kg, exenatide s.q. 1 μg
Protocol: as §2

serum miRNAs = experiment: Serum miRNA sequencing in NASH (HTF-C) diet mice; type: in vivo, mouse
Protocol: To begin evaluating the exosome cargo of MSDC-0602K-treated mice, WT mice were fed with either a low fat (LF) control diet (Research Diets D09100304) or high trans-fat, fructose, cholesterol (HTF-C) diet composed of 40% trans-fat, 20% fructose, 2% cholesterol (Research Diets D09100301).
Total RNA was isolated from 400 μL of serum and small RNA sequencing was performed by adapter ligation, cDNA synthesis and size selection of 145-160 base pairs. Sequencing was then performed on an Illumina HiSeq3000.

[5] = phase 2 clinical trial, cited from earlier work
mouse model of NASH = settings: effects require MPC expression in hepatocytes; cited from earlier work
[6] = target: T1, mitochondrial pyruvate carrier (MPC) (Homo sapiens, UniProt O95563+Q9Y5U8); settings: cited from earlier work
T1 sequence (Q9Y5U8 1-109): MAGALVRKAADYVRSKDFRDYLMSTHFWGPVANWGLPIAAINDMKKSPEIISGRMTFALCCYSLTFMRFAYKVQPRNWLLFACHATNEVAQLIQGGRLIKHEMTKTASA
T1 sequence (O95563 1-127): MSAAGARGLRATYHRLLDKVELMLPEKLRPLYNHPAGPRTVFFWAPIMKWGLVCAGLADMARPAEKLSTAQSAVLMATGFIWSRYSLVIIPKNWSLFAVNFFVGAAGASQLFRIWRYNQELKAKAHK

Row | Structure (SMILES) | glucose tolerance (GTT) ([1]; WT mice) | liver injury, major acute effects ([2]; acute dosing, effects require hepatocyte MPC) | increase of UCP1 expression, interaction with thyroid hormone [3] | glucose levels [4] | insulin staining (pancreatic islets) | number of islet cells (pancreatic islets) | glucose tolerance (GTT) ([1]; LS-MPC2-/- mice) | plasma insulin ([1]; LS-MPC2-/- mice) | plasma insulin ([1]; WT mice) | plasma ALT and liver injury gene expression, response to acute treatment ([2]; LS-MPC2-/- mice, single dose) | plasma ALT concentrations ([2]; WT mice, single dose, FIG. 11A) | gene expression for hepatic stellate cell activation and fibrotic scar formation ([2]; WT mice, single dose, FIG. 11B) | serum miRNAs altered in NASH model (serum miRNAs; HTF-C diet containing 331 ppm MSDC-0602, heat map of ~230 miRNAs) | serum miRNAs upregulated in NASH (mmu-miR-29c-3p, mmu-miR-802-3p, mmu-miR-802-5p) (serum miRNAs; HTF-C diet, FIGS. 13A-13C) | serum miRNAs down in NASH (mmu-miR-127-3p, mmu-miR-129-2-3p, mmu-miR-615-3p) (serum miRNAs; HTF-C diet, FIGS. 13D-13F) | serum miRNAs mmu-miR-129-5p, mmu-miR-205-5p (serum miRNAs; HTF-C diet, FIGS. 13G-13H) | circulating glucose ([5]; FIG. 1A) | circulating insulin ([5]; FIG. 1B) | liver damage (mouse model of NASH) | MPC binding and modulation [6]
1 | COc1cccc(C(=O)COc2ccc(CC3SC(=O)[N-]C3=O)cc2)c1.[K+] (stereo not shown) [MSDC-0602K] | improves glucose tolerance | attenuate liver injury | synergistic | – | – | – | – | – | – | – | – | – | – | – | – | – | – | – | – | –
2 | COc1cccc(C(=O)COc2ccc(CC3SC(=O)NC3=O)cc2)c1 (stereo not shown) [MSDC-0602] | improved glucose tolerance | – | synergy (much larger response) | significantly reduced | increased | increased | no improvement in glucose tolerance | decreased | decreased | refractory | decreased | decreased | largely corrected | down | up | large effect | lowered | lowered | prevents and reverse liver damage | binds and modulates
